# What was measured:
# [1] = Quantitative splicing assay (HTT), qPCR; assay type: cell-based, human; details: Homo sapiens, GM04724, 24 h, GM04724 lymphoblasts, qPCR, read-out: HTT Splicing: E49-50 EC50
# How it was run: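 TaqMan qPCR on cell-lysate cDNA quantifies cryptic-exon inclusion from HTT intron 49. Lymphoblasts plated at 50,000 cells/well had received compound for 24 h, 0.15 nM-2.5 uM range, 0.1% DMSO.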
# [2] = tested on: SMN protein in spinal muscular atrophy (SMA) patient fibroblasts (GM03813, Coriell); test: SMN protein assay, Mesoscale Discovery (MSD); assay type: cell-based, human; details: SMA patient fibroblasts GM03813, 48 hours, MSD; read-out: SMN2 protein EC50
# How it was run: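 Absolute SMN levels were quantified by MSD against an SMN protein standard curve (1 μg/ml to 19.5 pg/ml) run on each plate. Samples were lysates of GM03813 patient fibroblasts (7000 cells/well) treated 48 hours with compound doses from 2.5 μM down to 0.6 nM.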
# [3] = tested on: mHTT protein in GM04724 (CAG 70/20) Huntington's disease patient lymphoblast cells; test: mHTT protein assay, 2B7-MW1 assay via Mesoscale Discovery (MSD); assay type: cell-based, human; details: GM04724 Huntington's disease patient lymphoblasts
# How it was run: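 Signal from the 2B7-MW1 antibody pair on MSD, rising with polyQ length and smaller HTT fragments, measured mHTT after 48 h compound exposure (0.6 nM–10 μM) in GM04724 cells. A parallel replicate plate gave CellTiter Glo viability.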
# [4] = tested on: MDR1-MDCK cell monolayers; test: Blood-brain-barrier (BBB) penetration potential via MDCK-MDR1 permeability assay; details: for MDCK-MDR1: % Recov A-B: A-B direction; for MDCK-MDR1: % Recov B-A: B-A direction
# [5] = tested on: MDR1; test: as above; details: dog, MDCK-MDR1, pH 7.4, MDCK-MDR1: Efflux, efflux ratio
# [6] = tested on: MDR1 (P-gp); test: as above; details: dog; for Papp A→B at 120 min, 5 μM: MDCK-MDR1, pH 7.4, MDCK-MDR1: Papp A-B, A-B direction; for Papp B→A at 120 min, 5 μM: MDCK-MDR1, pH 7.4, MDCK-MDR1: Papp B-A, B-A direction
# [7] = tested on: SMN FL and SMN Δ7 in spinal muscular atrophy (SMA) patient fibroblasts (GM03813, Coriell); test: Quantitative splicing assay (SMN), qPCR; assay type: cell-based, human; details: Homo sapiens, Fibroblast, 24 h, SMA patient fibroblasts GM03813, 24 h, qPCR; read-out: SMN2 Splicing FL EC50
# Description: Spinal muscular atrophy (SMA) patient fibroblasts (GM03813, Coriell) are plated in 96-well plates at 50,000 cells/well. […] Treated cells are lysed and cDNA synthesized using the Fast Advanced Cells-to-Ct kit (Thermofisher A35378) according to the manufacturer's instructions. 2 μL of each cDNA are used in qPCR reactions. […] Reactions are run in a Quant Studio 6 qPCR instrument with default settings.
Structure (SMILES),EC50 [1] [nM],EC50 [2] [nM],EC50 [3] [nM],MDCK-MDR1: % Recov A-B [4] [%],MDCK-MDR1: % Recov B-A [4] [%],"efflux ratio at 120 min, 5 μM [5]","Papp A→B at 120 min, 5 μM [6] [×10⁻⁶ cm/s]","Papp B→A at 120 min, 5 μM [6] [×10⁻⁶ cm/s]",EC50 [7] [nM]
"CN(c1ccc(-c2cc3ncccc3cc2O)nn1)[C@@H]1C[C@H]2CC[C@H](N2)[C@@H]1F [Compound 73A, 7-(6-(((1S,2S,3R,5R)-2-fluoro-8-azabicyclo[3.2.1]octan-3-yl)(methyl)amino)pyridazin-3-yl)quinolin-6-ol]",0.01 to 15,0.01 to 15,0.01 to 15,76,91,21,2.92,61.3,0.01 to 15
"CN(c1ccc(-c2cc3ncccc3cc2O)nn1)[C@H]1C[C@@H]2CC[C@@H](N2)[C@H]1F [Compound 73B, 7-(6-(((1R,2R,3S,5S)-2-fluoro-8-azabicyclo[3.2.1]octan-3-yl)(methyl)amino)pyridazin-3-yl)quinolin-6-ol]",0.01 to 15,16 to 50,16 to 50,72,72,16,3.38,55.1,0.01 to 15
"CN(c1ccc(-c2cc3cccnc3cc2O)nn1)[C@H]1C[C@@H]2CC[C@@H](N2)[C@H]1F [Compound 74B, 6-(6-(((1R,2R,3S,5S)-2-fluoro-8-azabicyclo[3.2.1]octan-3-yl)(methyl)amino)pyridazin-3-yl)quinolin-7-ol]",51 to 100,0.01 to 15,0.01 to 15,77,90,19,3,56,16 to 50
"CN(c1ccc(-c2cc3cncnc3cc2O)nn1)[C@H]1C[C@@H]2CC[C@@H](N2)[C@H]1F [Compound 75B, 6-(6-(((1R,2R,3S,5S)-2-fluoro-8-azabicyclo[3.2.1]octan-3-yl)(methyl)amino)pyridazin-3-yl)quinazolin-7-ol]",51 to 100,16 to 50,51 to 100,88,90,21,2.44,50.5,16 to 50
"CN(c1ccc(-c2cc3cnn(C)c3cc2O)nn1)[C@@H]1C[C@H]2CC[C@H](N2)[C@@H]1F [Compound 76A, 5-(6-(((1S,2S,3R,5R)-2-fluoro-8-azabicyclo[3.2.1]octan-3-yl)(methyl)amino)pyridazin-3-yl)-1-methyl-1H-indazol-6-ol]",101 to 500,16 to 50,16 to 50,83,88,12,5.55,69.2,101 to 500
"CN(c1ccc(-c2cc3cnn(C)c3cc2O)nn1)[C@H]1C[C@@H]2CC[C@@H](N2)[C@H]1F [Compound 76B, 5-(6-(((1R,2R,3S,5S)-2-fluoro-8-azabicyclo[3.2.1]octan-3-yl)(methyl)amino)pyridazin-3-yl)-1-methyl-1H-indazol-6-ol]",16 to 50,0.01 to 15,0.01 to 15,84,93,15,3.97,60.3,16 to 50
